Test results as given in patent US20230416275A1, “MODULATORS OF CYSTIC FIBROSIS TRANSMEMBRANE CONDUCTANCE REGULATOR” (VERTEX PHARMACEUTICALS INCORPORATED, priority 2020, published 2023).
Where two headings read alike, the source gives them in different places.

Assays:
[1] = target: T1, F508del in NIH 3T3 cells (Homo sapiens, UniProt P13569, DEL508-508); assay: 3T3 assay: membrane potential optical assay for F508del correction; type: cell-based, mouse; settings: for EC50 / 3T3 Max Activity (%): F508del NIH 3T3 cells; for EC50: compound incubation 18-24 hours at 37° C., forskolin activation; for Emax: NIH3T3, F508del NIH 3T3 cells, read-out: 3T3 Max Activity (%); for Emax / 3T3 Max Activity (%): efficacy compared to lumacaftor in combination with acutely added 300 nM Ivacaftor
T1 construct: expressed in transfected cells
Method in brief: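 NIH3T3 mouse fibroblasts stably expressing F508del incubated with corrector compounds at a range of concentrations for 16-24 h at 37 °C, then loaded with voltage-sensing redistribution dye. Single addition of forskolin with Cl− gradient (chloride-free gluconate bath vs. NaCl bath, pH 7.4); membrane potential change read by fluorescence on FLIPR.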

[2] = target: CFTR-mediated chloride transport in human intestinal epithelial enteroid cells (Homo sapiens, UniProt P13569); assay: Membrane potential dye, Enteroid Assay A; type: cell-based; settings: for Ent. A Max Activity (%): % of chloride transport of triple combination control (3 μM N-[(6-amino-2-pyridyl)sulfonyl]-6-(3-fluoro-5-isobutoxy-phenyl)-2-[(4S)-2,2,4-trimethylpyrrolidin-1-yl]pyridine-3-carboxamide, 3 μM tezacaftor, 300 nM acute ivacaftor); for EC50: enteroid cells, 18-24 hours incubation, acute 10 μM forskolin and 300 nM ivacaftor, read-out: Ent. A EC50
Method in brief: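 Enteroids seeded at 5000 cells/well were exposed to test compound in IEMM for 18-24 h at 37 °C, then loaded with methyl oxonol membrane potential dye. Chloride transport was triggered in chloride-free buffer with 10 μM forskolin, 100 μM IBMX and 300 nM Compound III, read by fluorescence for 15 min and expressed as % of a triple-combination control.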

T1 sequence (P13569 with tags, fused parts or gaps DEL508-508): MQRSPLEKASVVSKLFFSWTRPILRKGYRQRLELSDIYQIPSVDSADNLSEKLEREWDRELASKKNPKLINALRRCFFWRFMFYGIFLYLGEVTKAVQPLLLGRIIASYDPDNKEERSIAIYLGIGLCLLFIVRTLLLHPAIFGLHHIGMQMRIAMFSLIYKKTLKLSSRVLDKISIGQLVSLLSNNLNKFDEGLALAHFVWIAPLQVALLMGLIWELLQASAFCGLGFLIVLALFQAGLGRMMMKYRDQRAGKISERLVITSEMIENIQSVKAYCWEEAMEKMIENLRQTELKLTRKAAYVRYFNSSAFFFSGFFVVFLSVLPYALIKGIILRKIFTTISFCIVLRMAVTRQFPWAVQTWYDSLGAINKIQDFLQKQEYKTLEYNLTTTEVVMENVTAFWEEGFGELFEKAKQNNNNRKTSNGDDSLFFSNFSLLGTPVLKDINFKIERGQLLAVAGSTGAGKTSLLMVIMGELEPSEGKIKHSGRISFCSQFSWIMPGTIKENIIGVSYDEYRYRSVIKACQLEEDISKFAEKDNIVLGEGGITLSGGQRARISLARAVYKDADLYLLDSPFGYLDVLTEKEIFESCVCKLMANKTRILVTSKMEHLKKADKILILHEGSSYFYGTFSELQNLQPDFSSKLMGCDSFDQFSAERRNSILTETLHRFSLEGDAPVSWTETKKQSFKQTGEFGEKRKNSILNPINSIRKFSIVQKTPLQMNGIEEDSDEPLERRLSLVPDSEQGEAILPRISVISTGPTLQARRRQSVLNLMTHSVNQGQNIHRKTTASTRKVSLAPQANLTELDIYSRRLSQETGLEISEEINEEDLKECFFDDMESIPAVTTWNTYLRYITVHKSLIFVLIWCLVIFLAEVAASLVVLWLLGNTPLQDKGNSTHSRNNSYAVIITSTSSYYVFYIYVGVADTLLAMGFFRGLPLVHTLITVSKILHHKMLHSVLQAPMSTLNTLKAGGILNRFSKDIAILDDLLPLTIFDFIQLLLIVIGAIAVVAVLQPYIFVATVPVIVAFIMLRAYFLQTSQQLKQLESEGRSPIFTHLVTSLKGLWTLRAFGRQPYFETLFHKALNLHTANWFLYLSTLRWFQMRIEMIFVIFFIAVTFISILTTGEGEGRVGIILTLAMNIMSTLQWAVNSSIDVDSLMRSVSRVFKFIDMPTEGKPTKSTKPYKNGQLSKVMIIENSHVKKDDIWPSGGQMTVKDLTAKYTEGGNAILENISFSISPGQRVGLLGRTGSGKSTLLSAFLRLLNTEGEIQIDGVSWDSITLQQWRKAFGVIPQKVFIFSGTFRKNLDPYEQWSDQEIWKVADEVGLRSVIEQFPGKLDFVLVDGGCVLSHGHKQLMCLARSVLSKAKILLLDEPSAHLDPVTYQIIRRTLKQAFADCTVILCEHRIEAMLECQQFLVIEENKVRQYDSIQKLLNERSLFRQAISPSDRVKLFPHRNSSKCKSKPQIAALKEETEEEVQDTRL
Chain of CFTR-mediated chloride transport in human intestinal epithelial enteroid cells (P13569 with tags, fused parts or gaps DEL508-508): as above

EC50 ([1]; read-out: 3T3 EC50) [µM]	Emax [1] [%]	EC50 [2] [µM]	Structure (SMILES)	Ent. A Max Activity (%) [2]	other results
1 to 3		3 to 30	Cc1cccc(C)c1-c1cc2nc(n1)NS(=O)(=O)c1cccc(c1)NC(=O)C1CC(CN(C(=O)OC(C)(C)C)C1)O2 (centres unmarked) [Compound 124]	++ (++ is 30-60%)	3T3 Max Activity (%) [1]: +++ (+++ is >60%)
< 1	> 60	1 to 3	Cc1cccc(C)c1-c1cc2nc(n1)NS(=O)(=O)c1cccc(c1)NC(=O)[C@@H]1C[C@@H](CN(CC3CC3)C1)O2 [Compound 30]	++ (++ is 30-60%)	
< 1	> 60	< 1	Cc1cccc(C)c1-c1cc2nc(n1)NS(=O)(=O)c1cccc(c1)NC(=O)[C@@H]1C[C@@H](CN(C(=O)OC(C)(C)C)C1)O2 (single isomer, unassigned) [Compound 2]	+++ (+++ is >60%)	
< 1	> 60	1 to 3	Cc1cccc(C)c1-c1cc2nc(n1)NS(=O)(=O)c1cccc(c1)NC(=O)[C@H]1C[C@@H](CN(CCC(C)(C)C)C1)O2 [Compound 12, (3S,7S)-5-(3,3-Dimethylbutyl)-19-(2,6-dimethylphenyl)-2-oxa-15λ^6-thia-5,9,16,18,21-pentaazatetracyclo[15.3.1.13,7.110,14]tricosa-1(21),10(22),11,13,17,19-hexaene-8,15,15-trione]	++ (++ is 30-60%)	
< 1	> 60	< 1	Cc1cccc(C)c1-c1cc2nc(n1)NS(=O)(=O)c1cccc(c1)NC(=O)[C@@H]1C[C@@H](CN(CC34CC(C3)C4)C1)O2 [Compound 25]	++ (++ is 30-60%)	
< 1	> 60	1 to 3	COCCN1C[C@@H]2C[C@H](C1)C(=O)Nc1cccc(c1)S(=O)(=O)Nc1nc(cc(-c3c(C)cccc3C)n1)O2 [Compound 7, (3S,7R)-19-(2,6-Dimethylphenyl)-5-(2-methoxyethyl)-2-oxa-15λ^6-thia-5,9,16,18,21-pentaazatetracyclo[15.3.1.13,7.110,14]tricosa-1(21),10(22),11,13,17,19-hexaene-8,15,15-trione]	+++ (+++ is >60%)	
1 to 3	> 60	1 to 3	Cc1cccc(C)c1-c1cc2nc(n1)NS(=O)(=O)c1cccc(c1)NC(=O)[C@@H]1C[C@H](CN(C(=O)OC(C)(C)C)C1)O2 (single isomer, unassigned) [Compound 3]	+ (+ is <30%)	
< 1	> 60	1 to 3	Cc1cccc(C)c1-c1cc2nc(n1)NS(=O)(=O)c1cccc(c1)NC(=O)[C@@H]1C[C@@H](CN(C(=O)CC(C)(C)C)C1)O2 [Compound 45]	+++ (+++ is >60%)	
< 1	> 60	< 1	Cc1cccc(C)c1-c1cc2nc(n1)NS(=O)(=O)c1cccc(c1)NC(=O)[C@@H]1C[C@@H](CN(CCC3(C(F)(F)F)CC3)C1)O2 [Compound 27]	+++ (+++ is >60%)	
		3 to 30	Cc1cccc(C)c1-c1cc2nc(n1)NS(=O)(=O)c1cccc(c1)NC(=O)C1CNCC(C1)O2 (centres unmarked) [Compound 52]	+ (+ is <30%)	3T3 Max Activity (%) [1]: + (+ is <30%)

Second part, the compound before the results:

Structure (SMILES)	EC50 ([1]; read-out: 3T3 EC50) [µM]	Emax [1] [%]	EC50 [2] [µM]	Ent. A Max Activity (%) [2]	other results
Cc1cccc(C)c1-c1cc2nc(n1)NS(=O)(=O)c1cccc(n1)NC(=O)C1CC(CN(C(=O)OC(C)(C)C)C1)O2 (centres unmarked)					ring closure, yield after HPLC (from Cc1cccc(C)c1-c1cc(OC2CC(C(=O)Oc3c(F)c(F)c(F)c(F)c3F)CN(C(=O)OC(C)(C)C)C2)nc(NS(=O)(=O)c2cccc(N)n2)n1, amide bond, 14-membered ring, none (thermal, OPfp ester), NMP, 10.1 mM, 140.0 °C, 5.0 h, 5 steps): 1%
Cc1ccccc1-c1cc2nc(n1)NS(=O)(=O)c1cccc(c1)NC(=O)c1cccc(c1)O2 [Compound 54, 5-(o-Tolyl)-9,9-dioxo-2-oxa-9λ^6-thia-6,8,15,23-tetraazatetracyclo[15.3.1.13,7.110,14]tricosa-1(20),3,5,7(23),10(22),11,13,17(21),18-nonaen-16-one]	< 1	> 60			ring closure, yield after HPLC (from Cc1ccccc1-c1cc(Oc2cccc(C(=O)O)c2)nc(NS(=O)(=O)c2cccc(N)c2)n1, amide bond, 14-membered ring, HATU/DIEA, DMF, 81.2 mM, 0.33 h): 45%
Cc1ccccc1-c1cc2nc(n1)NS(=O)(=O)c1cccc(c1)Nc1cccc(c1)O2					ring closure, yield after HPLC (other bond, 13-membered ring, CuI/pyrrole-2-carboxylic acid/K3PO4, DMSO, 65.2 mM, 3 steps): 2%
Cc1cccc(C)c1-c1cc2nc(n1)NS(=O)(=O)c1cccc(c1)NC(=O)C1CCCC(C1)O2 (mixture of isomers) [Compound 67, 5-(2,6-Dimethylphenyl)-9,9-dioxo-2-oxa-9λ^6-thia-6,8,15,23-tetraazatetracyclo[15.3.1.13,7.110,14]tricosa-3,5,7(23),10(22),11,13-hexaen-16-one]	< 1	> 60			ring closure, yield after HPLC (amide bond, 14-membered ring, HATU/DIEA, DMF, 100.0 mM, 3 steps): 20%
Cc1ccccc1-c1cc2nc(n1)NS(=O)(=O)c1cccc(c1)NCc1cccc(c1)O2 [Compound 62, 5-(o-Tolyl)-2-oxa-9λ^6-thia-6,8,15,23-tetraazatetracyclo[15.3.1.13,7.110,14]tricosa-1(20),3,5,7(23),10(22),11,13,17(21),18-nonaene 9,9-dioxide]	< 1				ring closure, yield after HPLC (amine bond, 14-membered ring, NaBH(OAc)3/TFA, AcOH, 3 steps): 1%
Cc1cccc(C)c1-c1cc2nc(n1)NS(=O)(=O)c1cccc(c1)NC(=O)[C@@H]1C[C@@H](CN(C(=O)OCCC(C)C)C1)O2 [Compound 8, 3-Methylbutyl (3S,7R)-19-(2,6-dimethylphenyl)-8,15,15-trioxo-2-oxa-15λ^6-thia-5,9,16,18,21-pentaazatetracyclo[15.3.1.13,7.110,14]tricosa-1(21),10(22),11,13,17,19-hexaene-5-carboxylate]	< 1		< 1	+++ (+++ is >60%)	
Cc1cccc(C)c1-c1cc2nc(n1)NS(=O)(=O)c1cccc(c1)NC(=O)[C@H]1CCC[C@H](C1)O2 (single isomer, unassigned) [Compound 69, 5-(2,6-dimethylphenyl)-9,9-dioxo-2-oxa-9λ^6-thia-6,8,15,23-tetraazatetracyclo[15.3.1.13,7.110,14]tricosa-3,5,7(23),10(22),11,13-hexaen-16-one]	< 1		1 to 3	++ (++ is 30-60%)	3T3 Max Activity (%) [1]: +++ (+++ is >60%)
Cc1cccc(C)c1-c1cc2nc(n1)NS(=O)(=O)c1cccc(c1)NC(=O)C1CNCC(C1)O2 (centres unmarked) [Compound 51]	3 to 30		3 to 30	++ (++ is 30-60%)	3T3 Max Activity (%) [1]: +++ (+++ is >60%)
Cc1ccccc1-c1cc2nc(n1)NS(=O)(=O)c1cccc(c1)NC(=O)c1ccc(cc1)O2 [Compound 63, 5-(o-Tolyl)-9,9-dioxo-2-oxa-9λ^6-thia-6,8,15,23-tetraazatetracyclo[15.2.2.13,7.110,14]tricosa-1(19),3,5,7(23),10(22),11,13,17,20-nonaen-16-one]					EC50 ([1]; 3T3 EC50 (μM)): 1 to 3 µM; ring closure, yield after HPLC (amide bond, 15-membered ring, HATU/DIEA, DMF, 3 steps): 1%
O=C1Nc2cccc(c2)S(=O)(=O)Nc2nc(cc(-c3cccc4ccccc34)n2)Oc2cccc1c2 [Compound 58, 5-(1-Naphthyl)-9,9-dioxo-2-oxa-9λ^6-thia-6,8,15,23-tetraazatetracyclo[15.3.1.13,7.110,14]tricosa-1(20),3,5,7(23),10(22),11,13,17(21),18-nonaen-16-one]	< 1	> 60	1 to 3	++ (++ is 30-60%)	
Cc1cccc(C)c1-c1cc2nc(n1)NS(=O)(=O)c1cccc(c1)NC(=O)CCCCO2 [Compound 72, 6-(2,6-Dimethylphenyl)-2,2-dioxo-9-oxa-2λ^6-thia-3,5,15,21-tetrazatricyclo[14.3.1.14,8]henicosa-1(20),4(21),5,7,16,18-hexaen-14-one]	< 1	> 60			ring closure, yield after HPLC (amide bond, 15-membered ring, HATU/DIEA, DMF, 5 steps): 3%
Cc1cccc(C)c1-c1cc2nc(n1)NS(=O)(=O)c1cccc(c1)NC(=O)[C@@H]1CNC[C@H](C1)O2 [Compound 48]	1 to 3	> 60		++ (++ is 30-60%)	
Cc1cccc(C)c1-c1cc2nc(n1)NS(=O)(=O)c1cccc(c1)NC(=O)[C@H]1CNC[C@H](C1)O2 [Compound 49]	1 to 3	> 60		+ (+ is <30%)	
Cc1cccc(C)c1-c1cc2nc(c1)Oc1cccc(c1)C(=O)Nc1cccc(c1)S(=O)(=O)N2 [Compound 76, 5-(2,6-Dimethylphenyl)-9,9-dioxo-2-oxa-9λ^6-thia-8,15,23-triazatetracyclo[15.3.1.13,7.110,14]tricosa-1(21),3(23),4,6,10,12,14(22),17,19-nonaen-16-one]		< 30		+ (+ is <30%)	
